Entries after “also recorded” stand apart in the source; their conditions may differ.
What was measured:
[1] = Hygroscopicity, DVS evaluation of free acid Form A and re-prepared salts (Table 5-7); assay type: physicochemical; conditions: for Form change after DVS: XRPD after DVS, * converted to a potential isomorphic hydrate by XRPD
Description: XRPD characterization was performed for the samples after DVS test.
DVS was measured via a SMS (Surface Measurement Systems) DVS Intrinsic. The relative humidity at 25° C. were calibrated against deliquescence point of LiCl, Mg(NO3)2 and KCl.

[2] = Kinetic solubility in water, pH buffers and bio-relevant media at 37° C. (Table 5-6); assay type: physicochemical; conditions: for pH: pH of solubility sample; for XRPD: residual solids
Description: Around 10 mg material was weighed into 5 mL water, buffer solution, SGF, FaSSIF or FeSSIF^1 followed by rolling at 25 rpm at 37° C. for 0.5 and 1 h. At each time point, around 0.8 mL suspension was sampled out for centrifugation and filtration. Solids were tested by XRPD.

[3] = Solid stability evaluation of free acid Form A, Na salt Form A and L-arginine salt Form A, 2 weeks (Table 5-5); assay type: physicochemical; conditions: for Form change: XRPD
[4] = Dog pharmacokinetic study, Free Acid Form A, sodium salt Form A, L-arginine salt Form A in oral HPMC capsule (Table 8-5); assay type: in vivo; conditions: 2 mg/kg, male Beagle dogs
Description: The objective of this study was to characterize the pharmacokinetics (PK) of Compound I in male Beagle dogs after oral (PO) or IV administration. […] The dose was administered orally by gavage to dogs. […] The plasma concentration of Compound I was determined by liquid chromatography with mass spectrometric detection (LC-MS/MS).

[5] = 50 mM acetate buffer (4.5), 0.5 h, 37° C.
[6] = alkaline borate buffer (8), 0.5 h, 37° C.
[7] = alkaline borate buffer (8), 1.0 h, 37° C.
[8] = 25° C./92.5% RH, open container, 2 weeks
[9] = 40° C./75% RH, open container, 2 weeks
[10] = 60° C., tight container, 2 weeks

3-((1S,2S)-1-(2-((S)-3-(3-(4-(diethylphosphoryl)-3-(methylamino)phenyl)-2-oxo-2,3-dihydro-1H-imidazol-1-yl)-2-(4-fluoro-3,5-dimethylphenyl)-4-methyl-4,5,6,7-tetrahydro-2H-pyrazolo[4,3-c]pyridine-5-carbonyl)-5-(tetrahydro-2H-pyran-4-yl)-1H-indol-1-yl)-2-methylcyclopropyl)-1,2,4-oxadiazol-5(4H)-one sodium salt Form A [Compound I sodium salt Form A]
Water uptake (@ 25° C./40-95% RH) ([1]; DVS, 25° C., 40-95% RH): 10.4% | Form change after DVS ([1]; listed as Compound I Na salt Form A): converted to a new form; also recorded: form change was observed | Form change after DVS ([1]; listed as Na salt Form A): Yes* | Solubility ([2]; 50 mM acetate buffer (4.5), 0.5 h, 37° C., LOQ = 0.500 μg/mL): <LOQ | pH [2, 5]: (4.60) | XRPD [2, 5]: AF^2 | Solubility ([2]; 50 mM acetate buffer (4.5), 1.0 h, 37° C., LOQ = 0.500 μg/mL): <LOQ | pH ([2]; 50 mM acetate buffer (4.5), 1.0 h, 37° C.): (4.55) | Solubility ([2]; 0.1N HCl (1.2), 0.5 h, 37° C., LOQ = 0.500 μg/mL): <LOQ | pH ([2]; 0.1N HCl (1.2), 0.5 h, 37° C.): (0.95) | Solubility ([2]; 0.1N HCl (1.2), 1.0 h, 37° C., LOQ = 0.500 μg/mL): <LOQ | pH ([2]; 0.1N HCl (1.2), 1.0 h, 37° C.): (1.06) | XRPD ([2]; 0.1N HCl (1.2), 1.0 h, 37° C.): AF^1 | Kinetic solubility, comparison between forms ([2]; 37° C., 0.5 and 1 h): higher than that of L-arginine salt Form A | Solubility ([2]; FaSSIF (6.5), 0.5 h, 37° C.): 9.1 µg/mL | pH ([2]; FaSSIF (6.5), 0.5 h, 37° C.): (6.53) | XRPD ([2]; FaSSIF (6.5), 0.5 h, 37° C.): AF^3 | Solubility ([2]; FaSSIF (6.5), 1.0 h, 37° C.): 10.2 µg/mL | pH ([2]; FaSSIF (6.5), 1.0 h, 37° C.): (6.60) | XRPD ([2]; FaSSIF (6.5), 1.0 h, 37° C.): AF^3 | Solubility ([2]; FeSSIF (5.0), 0.5 h, 37° C.): 42.7 µg/mL | pH ([2]; FeSSIF (5.0), 0.5 h, 37° C.): (4.98) | Solubility ([2]; FeSSIF (5.0), 1.0 h, 37° C.): 40.9 µg/mL | pH ([2]; FeSSIF (5.0), 1.0 h, 37° C.): (5.06) | XRPD ([2]; FeSSIF (5.0), 1.0 h, 37° C.): AF^1 | Solubility ([2]; H2O, 0.5 h, 37° C.): 1907.0 µg/mL | pH ([2]; H2O, 0.5 h, 37° C.): (8.50) | Solubility ([2]; H2O, 1.0 h, 37° C.): 1742.2 µg/mL | pH ([2]; H2O, 1.0 h, 37° C.): (8.34) | Solubility ([2]; SGF (2.0), 0.5 h, 37° C.): 14.2 µg/mL | pH ([2]; SGF (2.0), 0.5 h, 37° C.): (2.13) | XRPD ([2]; SGF (2.0), 0.5 h, 37° C.): AF^1 | Solubility ([2]; SGF (2.0), 1.0 h, 37° C.): 15.8 µg/mL | pH ([2]; SGF (2.0), 1.0 h, 37° C.): (2.17) | XRPD ([2]; SGF (2.0), 1.0 h, 37° C.): AF^1 | Solubility [2, 6]: 179.0 µg/mL | pH [2, 6]: (7.99) | XRPD [2, 6]: AF^3 | Solubility [2, 7]: 164.2 µg/mL | pH [2, 7]: (7.99) | XRPD [2, 7]: AF^3 | Disproportionation after solubility study (XRPD) ([2]; solids after kinetic solubility test): disproportionation was observed | Chemical and physical stability ([3]; 25° C./92.5% RH open, 40° C./75% RH open, 60° C. tight container, over 2 weeks, listed as Na salt Form A): chemically stable in these conditions but physically unstable at 25° C./92.5% RH and 40° C./75% RH | Color Change [3, 8]: No | HPLC purity (%) [3, 8]: 99.1% | HPLC purity/initial (%) [3, 8]: >100% | Form change ([3]; 25° C./92.5% RH, open container, 2 weeks, * Likely isomorphic hydrate): Yes* | Color Change [3, 9]: No | HPLC purity (%) [3, 9]: 99.1% | HPLC purity/initial (%) [3, 9]: >100% | Form change ([3]; 40° C./75% RH, open container, 2 weeks, * Likely isomorphic hydrate): Yes* | Color Change [3, 10]: No | HPLC purity (%) [3, 10]: 99.1% | HPLC purity/initial (%) [3, 10]: >100% | Form change [3, 10]: No | HPLC purity (%) ([3]; Initial): 99.0% | Tmax (median) [4]: 2.0 h | Tmax (range) [4]: [1.0-2.0] h | Cmax ([4]; mean): 64.1 ng/mL | AUClast ([4]; mean, t = 8 h): 198 h*ng/m:
